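Results reflect a 48-hour exposure of cells in 96-well plates to compound at five concentrations. The concentration for 50% growth inhibition is given as GI50. The concentration for full growth arrest is given as TGI.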
Experiments:
Test in all cases: NCI-60 cell line screen, 48 h
T-47D breast = test system: T-47D breast
OVCAR-5 ovarian = test system: OVCAR-5 ovarian
UACC-257 melanoma = test system: UACC-257 melanoma
MOLT-4 leukemia = test system: MOLT-4 leukemia
HCT-116 colon = test system: HCT-116 colon
CCRF-CEM leukemia = test system: CCRF-CEM leukemia
ACHN renal = test system: ACHN renal
KM12 colon = test system: KM12 colon
UO-31 renal = test system: UO-31 renal
M14 melanoma = test system: M14 melanoma
COLO 205 colon = test system: COLO 205 colon
MDA-MB-231 breast = test system: MDA-MB-231 breast
SNB-19 CNS = test system: SNB-19 CNS
SN12C renal = test system: SN12C renal
HS 578T breast = test system: HS 578T breast
A498 renal = test system: A498 renal
SK-MEL-2 melanoma = test system: SK-MEL-2 melanoma
SK-MEL-5 melanoma = test system: SK-MEL-5 melanoma
HL-60(TB) leukemia = test system: HL-60(TB) leukemia
NCI-H23 lung = test system: NCI-H23 lung
SF-539 CNS = test system: SF-539 CNS
SNB-75 CNS = test system: SNB-75 CNS
LOX IMVI melanoma = test system: LOX IMVI melanoma
NCI-H522 lung = test system: NCI-H522 lung
MDA-MB-435 = test system: MDA-MB-435
K-562 leukemia = test system: K-562 leukemia
SK-MEL-28 melanoma = test system: SK-MEL-28 melanoma
OVCAR-3 ovarian = test system: OVCAR-3 ovarian
OVCAR-8 ovarian = test system: OVCAR-8 ovarian
UACC-62 melanoma = test system: UACC-62 melanoma
IGROV1 ovarian = test system: IGROV1 ovarian
RXF 393 renal = test system: RXF 393 renal
EKVX NSCLC = test system: EKVX NSCLC
HCC-2998 colon = test system: HCC-2998 colon
NCI-H460 lung = test system: NCI-H460 lung
NCI-H226 lung = test system: NCI-H226 lung
PC-3 prostate = test system: PC-3 prostate
HT29 colon = test system: HT29 colon
A549 NSCLC = test system: A549 NSCLC
SF-268 CNS = test system: SF-268 CNS
HOP-92 NSCLC = test system: HOP-92 NSCLC
DU-145 prostate = test system: DU-145 prostate
CAKI-1 renal = test system: CAKI-1 renal
MALME-3M melanoma = test system: MALME-3M melanoma
MCF7 breast = test system: MCF7 breast
SW-620 colon = test system: SW-620 colon
TK-10 renal = test system: TK-10 renal
HOP-62 NSCLC = test system: HOP-62 NSCLC
HCT-15 colon = test system: HCT-15 colon
BT-549 breast = test system: BT-549 breast
U251 CNS = test system: U251 CNS
NCI/ADR-RES ovarian = test system: NCI/ADR-RES ovarian
SF-295 CNS = test system: SF-295 CNS
RPMI-8226 leukemia = test system: RPMI-8226 leukemia
786-0 renal = test system: 786-0 renal
OVCAR-4 ovarian = test system: OVCAR-4 ovarian
SK-OV-3 ovarian = test system: SK-OV-3 ovarian
SR leukemia = test system: SR leukemia

CN1CC(CNC(=O)OCc2ccccc2)CC2c3cccc4c3c(cn4C)CC21 (configuration not stated)
GI50 (T-47D breast): 2.26 µM | TGI (T-47D breast): 4.67 µM | GI50 (OVCAR-5 ovarian): 1.98 µM | TGI (OVCAR-5 ovarian): 4.91 µM | GI50 (UACC-257 melanoma): 1.42 µM | TGI (UACC-257 melanoma): 2.81 µM | GI50 (MOLT-4 leukemia): 2.36 µM | TGI (MOLT-4 leukemia): 5.25 µM | GI50 (HCT-116 colon): 1.72 µM | TGI (HCT-116 colon): 4.18 µM | GI50 (CCRF-CEM leukemia): 2.48 µM | TGI (CCRF-CEM leukemia): 7.81 µM | GI50 (ACHN renal): 2.29 µM | TGI (ACHN renal): 5.58 µM | GI50 (KM12 colon): 2.14 µM | TGI (KM12 colon): 4.65 µM | GI50 (UO-31 renal): 1.24 µM | TGI (UO-31 renal): 4.22 µM | GI50 (M14 melanoma): 2.14 µM | TGI (M14 melanoma): 4.68 µM | GI50 (COLO 205 colon): 1.37 µM | TGI (COLO 205 colon): 2.75 µM | GI50 (MDA-MB-231 breast): 1.65 µM | TGI (MDA-MB-231 breast): 3.28 µM | GI50 (SNB-19 CNS): 1.8 µM | TGI (SNB-19 CNS): 3.99 µM | GI50 (SN12C renal): 2.86 µM | TGI (SN12C renal): 11.3 µM | GI50 (HS 578T breast): 1.99 µM | TGI (HS 578T breast): 6.96 µM | GI50 (A498 renal): 3.47 µM | TGI (A498 renal): 16 µM | GI50 (SK-MEL-2 melanoma): 1.88 µM | TGI (SK-MEL-2 melanoma): 3.45 µM | GI50 (SK-MEL-5 melanoma): 1.49 µM | TGI (SK-MEL-5 melanoma): 2.86 µM | GI50 (HL-60(TB) leukemia): 1.91 µM | TGI (HL-60(TB) leukemia): 3.85 µM | GI50 (NCI-H23 lung): 2.61 µM | TGI (NCI-H23 lung): 10.6 µM | GI50 (SF-539 CNS): 1.64 µM | TGI (SF-539 CNS): 3.24 µM | GI50 (SNB-75 CNS): 1.9 µM | TGI (SNB-75 CNS): 4.68 µM | GI50 (LOX IMVI melanoma): 1.64 µM | TGI (LOX IMVI melanoma): 3.21 µM | GI50 (NCI-H522 lung): 1.73 µM | TGI (NCI-H522 lung): 3.33 µM | GI50 (MDA-MB-435): 1.81 µM | TGI (MDA-MB-435): 3.53 µM | GI50 (K-562 leukemia): 1.69 µM | TGI (K-562 leukemia): 4.44 µM | GI50 (SK-MEL-28 melanoma): 1.62 µM | TGI (SK-MEL-28 melanoma): 3.03 µM | GI50 (OVCAR-3 ovarian): 2.63 µM | TGI (OVCAR-3 ovarian): 7.79 µM | GI50 (OVCAR-8 ovarian): 1.75 µM | TGI (OVCAR-8 ovarian): 3.51 µM | GI50 (UACC-62 melanoma): 1.66 µM | TGI (UACC-62 melanoma): 3.17 µM | GI50 (IGROV1 ovarian): 1.77 µM | TGI (IGROV1 ovarian): 4.49 µM | GI50 (RXF 393 renal): 1.74 µM | TGI (RXF 393 renal): 3.2 µM | GI50 (EKVX NSCLC): 5.2 µM | TGI (EKVX NSCLC): 21.3 µM | GI50 (HCC-2998 colon): 1.67 µM | TGI (HCC-2998 colon): 3.19 µM | GI50 (NCI-H460 lung): 1.83 µM | TGI (NCI-H460 lung): 3.55 µM | GI50 (NCI-H226 lung): 2.82 µM | TGI (NCI-H226 lung): 9.06 µM | GI50 (PC-3 prostate): 2.07 µM | TGI (PC-3 prostate): 6.28 µM | GI50 (HT29 colon): 1.4 µM | TGI (HT29 colon): 3.27 µM | GI50 (A549 NSCLC): 2.22 µM | TGI (A549 NSCLC): 5.24 µM | GI50 (SF-268 CNS): 3.48 µM | TGI (SF-268 CNS): 13.4 µM | GI50 (HOP-92 NSCLC): 1.72 µM | TGI (HOP-92 NSCLC): 5.95 µM | GI50 (DU-145 prostate): 3.88 µM | TGI (DU-145 prostate): 14.4 µM | GI50 (CAKI-1 renal): 1.68 µM | TGI (CAKI-1 renal): 3.65 µM | GI50 (MALME-3M melanoma): 1.57 µM | TGI (MALME-3M melanoma): 3.14 µM | GI50 (MCF7 breast): 1.77 µM | TGI (MCF7 breast): 3.29 µM | GI50 (SW-620 colon): 1.59 µM | TGI (SW-620 colon): 3.12 µM | GI50 (TK-10 renal): 1.92 µM | TGI (TK-10 renal): 3.67 µM | GI50 (HOP-62 NSCLC): 1.52 µM | TGI (HOP-62 NSCLC): 2.98 µM | GI50 (HCT-15 colon): 1.69 µM | TGI (HCT-15 colon): 3.52 µM | GI50 (BT-549 breast): 2.07 µM | TGI (BT-549 breast): 4.62 µM | GI50 (U251 CNS): 1.46 µM | TGI (U251 CNS): 2.91 µM | GI50 (NCI/ADR-RES ovarian): 1.82 µM | TGI (NCI/ADR-RES ovarian): 4.49 µM | GI50 (SF-295 CNS): 2.09 µM | TGI (SF-295 CNS): 4.76 µM | GI50 (RPMI-8226 leukemia): 2.14 µM | TGI (RPMI-8226 leukemia): 5.36 µM

Cc1nc(C(N)=S)sc1C(=O)CC(=O)C(=O)Nc1nc2ccccc2[nH]1
TGI (T-47D breast): > 100 µM | TGI (OVCAR-5 ovarian): > 100 µM | TGI (UACC-257 melanoma): > 100 µM | TGI (MOLT-4 leukemia): > 100 µM | TGI (HCT-116 colon): > 100 µM | TGI (786-0 renal): > 100 µM | TGI (ACHN renal): > 100 µM | TGI (KM12 colon): > 100 µM | TGI (UO-31 renal): > 100 µM | TGI (M14 melanoma): > 100 µM | TGI (OVCAR-4 ovarian): > 100 µM | TGI (MDA-MB-231 breast): > 100 µM | TGI (SK-OV-3 ovarian): > 100 µM | TGI (SN12C renal): > 100 µM | TGI (HS 578T breast): > 100 µM | TGI (A498 renal): > 100 µM | TGI (SK-MEL-2 melanoma): > 100 µM | TGI (SK-MEL-5 melanoma): > 100 µM | TGI (HL-60(TB) leukemia): > 100 µM | TGI (NCI-H23 lung): > 100 µM | TGI (SF-539 CNS): > 100 µM | TGI (SNB-75 CNS): > 100 µM | TGI (LOX IMVI melanoma): > 100 µM | TGI (NCI-H522 lung): > 100 µM | TGI (MDA-MB-435): > 100 µM | TGI (K-562 leukemia): > 100 µM | TGI (SK-MEL-28 melanoma): > 100 µM | TGI (OVCAR-3 ovarian): > 100 µM | TGI (OVCAR-8 ovarian): > 100 µM | TGI (UACC-62 melanoma): > 100 µM | TGI (IGROV1 ovarian): > 100 µM | TGI (RXF 393 renal): > 100 µM | TGI (EKVX NSCLC): > 100 µM | TGI (HCC-2998 colon): > 100 µM | TGI (NCI-H460 lung): > 100 µM | TGI (NCI-H226 lung): > 100 µM | TGI (PC-3 prostate): > 100 µM | TGI (HT29 colon): > 100 µM | TGI (A549 NSCLC): > 100 µM | TGI (SF-268 CNS): > 100 µM | TGI (HOP-92 NSCLC): > 100 µM | TGI (CAKI-1 renal): > 100 µM | TGI (MALME-3M melanoma): > 100 µM | TGI (MCF7 breast): > 100 µM | TGI (SW-620 colon): > 100 µM | TGI (TK-10 renal): > 100 µM | TGI (SR leukemia): > 100 µM | TGI (HOP-62 NSCLC): > 100 µM | TGI (HCT-15 colon): > 100 µM | TGI (BT-549 breast): > 100 µM | TGI (U251 CNS): > 100 µM | TGI (NCI/ADR-RES ovarian): > 100 µM | TGI (SF-295 CNS): > 100 µM | TGI (RPMI-8226 leukemia): > 100 µM

— PubChem BioAssay (NCI)
